# Results: PubChem BioAssay AID2060910 (Molecular Pharmacology Branch, DTP, NCI, 2025)
# Tested on: 242566-281-R-J2-PDC complex spheroid viability
# Assay: Anticancer human tumor 242566-281-R-J2-PDC patient-derived pancreatic carcinoma cell line growth inhibition [RAS]
# Details: for IC50: curve of first compound; for viability, T/C: stronger effect = lower value
# Summary of the method: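 Multi-cell-type spheroids: tumor cells plus HUVEC endothelial cells and mesenchymal stem cells. RAS-pathway inhibitors were combined with targeted agents, each dosed in half-log steps down from clinical Cmax, or from 10 microM when Cmax was unknown.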
# [1] = second compound 0.000949 µM, first compound 0.0316 µM
# [2] = second compound 0.000949 µM, first compound 0.1 µM
# [3] = second compound 0.000949 µM, first compound 0.316 µM
# [4] = second compound 0.000949 µM, first compound 1 µM
# [5] = second compound 0.000949 µM, first compound 3.16 µM
# [6] = second compound 0.000949 µM, first compound 10 µM
# [7] = second compound 0.003 µM, first compound 0.0316 µM
# [8] = second compound 0.003 µM, first compound 0.1 µM
# [9] = second compound 0.003 µM, first compound 0.316 µM
# [10] = second compound 0.003 µM, first compound 1 µM
# [11] = second compound 0.003 µM, first compound 3.16 µM
# [12] = second compound 0.003 µM, first compound 10 µM
# [13] = second compound 0.00949 µM, first compound 0.0316 µM
# [14] = second compound 0.00949 µM, first compound 0.1 µM
# [15] = second compound 0.00949 µM, first compound 0.316 µM
# [16] = second compound 0.00949 µM, first compound 1 µM
# [17] = second compound 0.00949 µM, first compound 3.16 µM
# [18] = second compound 0.00949 µM, first compound 10 µM
# [19] = second compound 0.03 µM, first compound 0.0316 µM
# [20] = second compound 0.03 µM, first compound 0.1 µM
# [21] = second compound 0.03 µM, first compound 0.316 µM
# [22] = second compound 0.03 µM, first compound 1 µM
# [23] = second compound 0.03 µM, first compound 3.16 µM
# [24] = second compound 0.03 µM, first compound 10 µM
# [25] = second compound 0.0949 µM, first compound 0.0316 µM
# [26] = second compound 0.0949 µM, first compound 0.1 µM
# [27] = second compound 0.0949 µM, first compound 0.316 µM
# [28] = second compound 0.0949 µM, first compound 1 µM
# [29] = second compound 0.0949 µM, first compound 3.16 µM
# [30] = second compound 0.0949 µM, first compound 10 µM
# [31] = second compound 0.3 µM, first compound 0.0316 µM
# [32] = second compound 0.3 µM, first compound 0.1 µM
# [33] = second compound 0.3 µM, first compound 0.316 µM
# [34] = second compound 0.3 µM, first compound 1 µM
# [35] = second compound 0.3 µM, first compound 3.16 µM
# [36] = second compound 0.3 µM, first compound 10 µM
# 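Also: spheroids exposed to compound for 7 days before readout.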
# 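For viability, T/C in this document: 100% = DMSO vehicle control wells.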
smiles,measurement,setting,value
CC1(O)CCCC1n1c(=O)c(C(F)F)cc2cnc(NC3CCN(S(C)(=O)=O)CC3)nc21 (centres undefined) + CCn1c(-c2cccnc2C(C)OC)c2c3cc(ccc31)N1CCOC(CC(NC(=O)C(C(C)C)N(C)C(=O)C3(F)CCN(C(=O)C#CC(C)(C)N(C)C)CC3)C(=O)N3CCCC(N3)C(=O)OCC(C)(C)C2)C1,IC50,second compound 0.000949 µM,6360 nM
same,IC50,second compound 0.003 µM,5990 nM
same,IC50,second compound 0.00949 µM,7700 nM
same,IC50,second compound 0.03 µM,> 10000 nM
same,IC50,second compound 0.0949 µM,> 10000 nM
same,IC50,second compound 0.3 µM,6330 nM
same,"viability, T/C",[1],86.4%
same,"viability, T/C",[2],70.1%
same,"viability, T/C",[3],63.5%
same,"viability, T/C",[4],94.3%
same,"viability, T/C",[5],114%
same,"viability, T/C",[6],26.9%
same,"viability, T/C",[7],77.3%
same,"viability, T/C",[8],63.5%
same,"viability, T/C",[9],71.9%
same,"viability, T/C",[10],91.5%
same,"viability, T/C",[11],110%
same,"viability, T/C",[12],23.6%
same,"viability, T/C",[13],84.6%
same,"viability, T/C",[14],62.4%
same,"viability, T/C",[15],70.3%
same,"viability, T/C",[16],86.8%
same,"viability, T/C",[17],95.9%
same,"viability, T/C",[18],41.2%
same,"viability, T/C",[19],78.6%
same,"viability, T/C",[20],82%
same,"viability, T/C",[21],83.9%
same,"viability, T/C",[22],85.8%
same,"viability, T/C",[23],84.9%
same,"viability, T/C",[24],53.1%
same,"viability, T/C",[25],69.1%
same,"viability, T/C",[26],62.8%
same,"viability, T/C",[27],69.6%
same,"viability, T/C",[28],90%
same,"viability, T/C",[29],90%
same,"viability, T/C",[30],54.4%
same,"viability, T/C",[31],64.8%
same,"viability, T/C",[32],67.4%
same,"viability, T/C",[33],71.6%
same,"viability, T/C",[34],78.9%
same,"viability, T/C",[35],101%
same,"viability, T/C",[36],32.6%
CCC(CC)c1cc(NC2CCC(N)C2)n2nccc2n1 (centres undefined) + CCn1c(-c2cccnc2C(C)OC)c2c3cc(ccc31)N1CCOC(CC(NC(=O)C(C(C)C)N(C)C(=O)C3(F)CCN(C(=O)C#CC(C)(C)N(C)C)CC3)C(=O)N3CCCC(N3)C(=O)OCC(C)(C)C2)C1,IC50,second compound 0.000949 µM,2760 nM
same,IC50,second compound 0.003 µM,2750 nM
same,IC50,second compound 0.00949 µM,2180 nM
same,IC50,second compound 0.03 µM,1870 nM
same,IC50,second compound 0.0949 µM,1670 nM
same,IC50,second compound 0.3 µM,1500 nM
same,"viability, T/C",[1],89.3%
same,"viability, T/C",[2],91.4%
same,"viability, T/C",[3],91.1%
same,"viability, T/C",[4],97.8%
same,"viability, T/C",[5],44.2%
same,"viability, T/C",[6],1.81%
same,"viability, T/C",[7],97.9%
same,"viability, T/C",[8],112%
same,"viability, T/C",[9],102%
same,"viability, T/C",[10],105%
same,"viability, T/C",[11],42.4%
same,"viability, T/C",[12],1.8%
same,"viability, T/C",[13],107%
same,"viability, T/C",[14],77.5%
same,"viability, T/C",[15],86.7%
same,"viability, T/C",[16],87.6%
same,"viability, T/C",[17],32%
same,"viability, T/C",[18],2.19%
same,"viability, T/C",[19],93.3%
same,"viability, T/C",[20],86.3%
same,"viability, T/C",[21],89.9%
same,"viability, T/C",[22],84.3%
same,"viability, T/C",[23],21.4%
same,"viability, T/C",[24],2.92%
same,"viability, T/C",[25],106%
same,"viability, T/C",[26],96.6%
same,"viability, T/C",[27],90%
same,"viability, T/C",[28],80.5%
same,"viability, T/C",[29],12.4%
same,"viability, T/C",[30],3.14%
same,"viability, T/C",[31],82.4%
same,"viability, T/C",[32],89.8%
same,"viability, T/C",[33],84.7%
same,"viability, T/C",[34],69.2%
same,"viability, T/C",[35],15.2%
same,"viability, T/C",[36],2.62%
